# Columns and labels:
# [1] = molecular target: T1, DHODH (Homo sapiens (Human), UniProt Q02127); test: DHODH activity assay (coupled enzyme assay, DCIP reduction); type: biochemical; details: read-out: DHODH inhibition activity, IC50 group
# Protocol: The DHODH activity assay is a coupled enzyme assay in which oxidation of DHO and subsequent reduction of ubiquinone are stoichiometrically equivalent to the reduction of DCIP ([…]). The reduction of DCIP is accompanied by a loss of absorbance at 610 nm.
# Buffer Preparation: 50 mM tris HCl, 150 mM KCl, and pH 8.0, 0.8% triton.
# L-Dihydroorotic acid stock solution of 20 mM in buffer.
# 2, 6-Dichloroindophenol Sodium salt hydrate stock solution of 20 mM in buffer.
# Decylubiquinone stock solution of 20 mM in buffer.
# 5 μL of Dimethyl sulfoxide or a compound of formula (I) in DMSO solution was added to the wells of a 96 well plate. Compounds of formula (I) were measured at 10 μM.
# Protein along with buffer was added, so that the total volume including the DMSO was 87 μL. Compound and protein were incubated for half an hour at room temperature after mixing. 5 μL of 20 mM solution of L-Dihydroorotic acid, 5 μL of 2 mM solution of Decylubiquinone and 3 μL of 2 mM solution of 2, 6-Dichloroindophenol sodium salt hydrate were added to the above solution (total assay volume 100 μL). The mixture was stirred for 2 min and absorbance was recorded at every 10 min at 610 nanometers.
# Percent inhibition is calculated as follows: […]
# A 2 mM DMSO stock solution of the selected trisubstituted benzoimidazole and benzotriazole derivatives of formula (I) of the present invention to be examined was prepared. Subsequent ⅓rd dilutions were made.
# 5 μL of each stock of compound of formula (I) was used for each 100 μL assay. Therefore, 5 μL of the 2 mM stock provided 100 μL of 100 μM solution of compound of formula (I), when made up with buffer, protein and substrate. See also: Ulrich et al. (2001) Eur. J. Biochem.268, 1861-1868.
# Target sequence in this assay (Q02127 whole entry): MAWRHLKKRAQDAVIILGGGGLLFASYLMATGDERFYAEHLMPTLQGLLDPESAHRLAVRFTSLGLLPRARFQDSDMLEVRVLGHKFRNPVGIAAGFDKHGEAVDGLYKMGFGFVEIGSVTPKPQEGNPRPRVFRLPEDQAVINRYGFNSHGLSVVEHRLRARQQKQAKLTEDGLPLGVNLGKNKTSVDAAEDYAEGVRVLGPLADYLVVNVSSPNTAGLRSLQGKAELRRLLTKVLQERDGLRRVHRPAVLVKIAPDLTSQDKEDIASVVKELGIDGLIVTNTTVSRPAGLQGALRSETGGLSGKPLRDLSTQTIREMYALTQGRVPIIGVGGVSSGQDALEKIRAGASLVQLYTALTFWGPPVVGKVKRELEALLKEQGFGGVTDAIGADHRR
# [2] = system: Ramos cells; test: Ramos proliferation assay (XTT); type: cell-based; details: Homo sapiens, 72 hrs; for inhibition at 30 µM: read-out: Maximum % Inhibition at 30 μM; for IC50: XTT; for inhibition at 10 µM: read-out: Maximum % Inhibition (at 10 μM)
# Text: Cell proliferation assay is a sensitive method for quantification of viable cells in cytotoxicity or proliferation assay. The XTT (2,3-bis[2-Methoxy-4-nitro-5-sulfophenyl]-2 H-tetrazolium-5-carboxyanilide inner salt) system is a means of measuring the activity of living cells via mitochondrial dehydrogenases. Mitochondrial dehydrogenases of viable cells cleave the tetrazolium ring of XTT, yielding orange formazon crystals which are soluble in aqueous solutions. The XTT solution is potentiated by the addition of an electron coupling agent, phenazine methosulphate (PMS) to the reaction. The resulting orange colour is spectrophotometrically measured at 450 nm. An increase or decrease in cell numbers results in a concomitant change in the amount of formazon formed, indicating the degree of cytotoxicity caused by the test material.
# Dissolve 17.7 g IMDM (Iscove's Modified Dulbecco's Medium) powder, 1.5 g sodium bicarbonate pH 7.2-7.4 in 1 L MiliQ water, add 1% Pencilin/ Streptomycin and 10% FBS.
# Dissolve 10.6 g Ham's F12 powder, 1.5 g sodium bicarbonate pH 7.2-7.4 in 1 L MiliQ water, add 1% Penicillin/Streptomycin. DMSO used as vehicle.
# Ramos cells were re-suspended to a density of 1×10^5 cells/ ml in complete IMDM medium. 95 μL of this cell suspension was added to the 96-well plate to seed ˜10,000 cells per well. The plates were incubated at 37° C. under a humidified atmosphere of 5% CO2 for ˜1 hour before compound addition.
# Test compounds (Refer to Table 1) were dissolved in 100% DMSO to generate a 2/6/10/20 mM stock solution. A 200× concentration of the required final concentrations was prepared in DMSO. 10 μL of each concentration (200×) was then diluted in 90 μL of serum-free Ham's F12 medium to get an intermediate concentration of 20× in medium. The DMSO concentration in this step is 10% (Intermediate dilution). 5 μL of each intermediate dilution was then added in triplicates in the previously seeded 96-well plate. The final DMSO concentration was 0.5% in the experimental wells. Cells treated with 0.5% DMSO served as positive control. 100 μL, of complete IMDM medium served as media blank for data analysis. 200 μL, of 1× PBS was added in all corner wells of the assay plate. Plates were then incubated for 72 hrs in an incubator with 5% CO2 at 37° C.
# On termination day, 100 μl of XTT solution (1 mg/ml XTT supplemented with 25 μM PMS in Ham's F12 medium) was added to each well. Plates were incubated for 2 hrs. The amount of formazon produced was determined by reading the absorbance of the plate using VICTOR X5 multilabel plate reader at wavelength of 450 nm. The IC50 values were determined as concentrations that reduced cell viability by 50% and the curve was plotted with GraphPad Prism 6.0.
# Percent (%) Inhibition was calculated by normalizing DMSO control values to 100% using the formula: % Inhibition=[…](Abs450test compound−blank)/(Abs450positive control−blank)*100
# Test compound contains cells, test compound, IMDM medium and 0.5% DMSO
# Positive control contains cells, IMDM medium and 0.5% DMSO
# Blank contains IMDM medium
# [3] = molecular target: T1, DHODH; details: cited from earlier work
# Target sequence in this assay (Q02127 whole entry, species assumed): as the sequence (Q02127 whole entry) above
# [4] = system: L1210 murine leukemia; details: cited from earlier work
SMILES,IC50 [1] [nM],inhibition at 30 µM [2] [%],IC50 [2] [nM],inhibition at 10 µM [2] [%],Fold greater inhibitor of DHODH than of protein tyrosine kinase [3],Anticancer activity [4]
"Cn1nc2cc(-c3c(F)c(F)c(-c4ccccc4)c(F)c3F)cc(C(=O)O)c2n1 [Compound 24, 2-methyl-6-(2,3,5,6-tetrafluoro-[1,1′-biphenyl]-4-yl)-2H-benzo[d][1,2,3]triazole-4-carboxylic acid]",< 100,104,400,–,–,–
"CN1CCN(Cc2ccccc2-c2ccc(C3=CC4N=NN(C)C4C(C(=O)O)=C3)cc2)CC1 (stereo not shown) [Compound 29, 1-methyl-5-(2′-((4-methylpiperazin-1-yl)methyl)-[1,1′-biphenyl]-4-yl)-3a,7a-dihydro-1H-benzo[d][1,2,3]triazole-7-carboxylic acid]",101 to 1000,81,8970,–,–,–
"Cn1nnc2cc(-c3ccc(-c4ccccc4)cc3)cc(C(=O)O)c21 [Compound 3, 5-([1,1′-biphenyl]-4-yl)-1-methyl-1H-benzo[d][1,2,3]triazole-7-carboxylic acid]",101 to 1000,113,524,–,–,–
"Cn1nnc2cc(-c3c(F)c(F)c(-c4cccc(CN5CCCCC5)c4)c(F)c3F)cc(C(=O)O)c21 [Compound 34, 1-methyl-5-(2,3,5,6-tetrafluoro-3′-(piperidin-1-ylmethyl)-[1,1′-biphenyl]-4-yl)-1H-benzo[d][1,2,3]triazole-7-carboxylic acid.2,2,2-trifluoroacetic acid]",101 to 1000,–,675,111,–,–
"Cn1nnc2cc(-c3ccc(-c4ccccc4CN4CCCC4)cc3)cc(C(=O)O)c21 [Compound 27, 1-methyl-5-(2′-(pyrrolidin-1-ylmethyl)-[1,1′-biphenyl]-4-yl)-1H-benzo[d][1,2,3]triazole-7-carboxylic acid]",> 1000,89,3050,–,–,–
C/C(O)=C(\C#N)C(=O)Nc1ccc(C(F)(F)F)cc1 [Teriflunomide],–,–,–,–,"100-1,000 fold",–
"Cc1ccccc1-c1ccc(-c2cc(C(N)=O)c3nn(C)nc3c2)cc1 [Compound 11, 2-methyl-6-(2′-methyl-[1,1′-biphenyl]-4-yl)-2H-benzo[d][1,2,3]triazole-4-carboxamide]",101 to 1000,–,–,67,–,–
"Cn1nnc2cc(-c3c(F)c(F)c(-c4ccccc4)c(F)c3F)cc(C(=O)O)c21 [Compound 19, 1-methyl-5-(2,3,5,6-tetrafluoro-[1,1′-biphenyl]-4-yl)-1H-benzo[d][1,2,3]triazole-7-carboxylic acid]",< 100,106,70,–,–,–
"Cc1c(-c2ccc(-c3ccccc3F)cc2)nc2ccc(F)cc2c1C(=O)O [Brequinar, 6-Fluoro-2-(2′-fluoro[1,1′-biphenyl]-4-yl)-3-methyl-4-quinolinecarboxylic acid]",–,–,–,–,–,exhibits an anticancer activity
"Cc1ccccc1-c1ccc(-c2cc(C(N)=O)c3c(c2)nnn3C)cc1 [Compound 2, 1-methyl-5-(2′-methyl-[1,1′-biphenyl]-4-yl)-1H-benzo[d] [1,2,3]triazole-7-carboxamide]",< 100,95,1090,–,–,–

# Reference: patent US11147801B2, “Methods of use for trisubstituted benzotriazole derivatives as dihydroorotate oxygenase inhibitors” (Aurigene Discovery Technologies Limited, priority 2017, dated 2021)
